Series [1] in a line: Determination of galactose kinetics in whole blood after oral galactose. Particulars: healthy volunteer, oral 0.3 g of galactose per kilogram of body weight in 250 ml water. The series is classed as in vivo, human. Here is the method: (§1) Galactose powder was supplied by Falcento. Galactose levels in whole blood were determined in a healthy volunteer after the oral consumption of 250 ml of water in which 0.3 g of galactose per kilogram of body weight had been dissolved. Measurements of galactose levels in blood were made by means of spectrophotometry at intervals of 10 minutes during the first hour and at intervals of 30 minutes for an additional 3 hours. Lactose or galactose supplementation was administered as an aqueous solution at a dose of 0.5 to 1.0 g per kilogram per day, divided into three to six daily doses (on the basis of patient preference).
Enzymatic determination of galactose levels in whole blood was performed using exogenous galactose dehydrogenase (galactose + NAD^+ → galactono-1,4-lactone + NADH + H^+). Galactose levels were determined in a healthy control after oral consumption of 0.3 g galactose (falcento AG, Kreuzlingen, Switzerland) per kilogram body weight dissolved in 250 ml water. Measurements of galactose levels were made at intervals of 10 minutes during the first hour and at intervals of 30 minutes for additional three hours.
3000 µl of galactose buffer reagent (Instruchemie, Delfzijl, Netherlands), 100 µl of galactose NAD reagent (Instruchemie) and 200 µl of a diluted calibrator (Instruchemie) were mixed and the absorbance against distilled water was read at a temperature of 25 °C and a wavelength of 340 nm (optical density 1).
500 µl of each whole blood sample were added to 1000 µl perchloric acid (0.33 mol/l) for deproteinization and then centrifuged. 200 µl of the supernatant were added to 3000 µl galactose buffer reagent, 100 µl galactose NAD reagent and absorbance was read (optical density 1). After supplementation of 20 µl galactose start reagent and incubation at 25 °C for 15 min, the optical density 2 was measured in both, the calibrator and blood samples.
For manual calculation of the galactose concentration the following formula was used: galactose(mmol/l) = (ΔO.D.controlorsample)/(ΔO.D.calibrator) × concentrationofcalibrator [formula]

For series [2], the system named is PGM1-deficient fibroblasts. In words: Assay for cellular glycosylation efficiency using modified GFP (Glyc-ER-GFP). It is filed as cell-based, human. The note with it: fibroblasts from patients, galactose alone added to culture medium. Here is the method:
(§2) Analysis of transferrin glycosylation was performed on serum samples with the use of isoelectric focusing, (3,4) sodium dodecyl sulfate-polyacrylamide-gel electrophoresis (SDS-PAGE), (3) or liquid chromatography-mass spectrometry (9) (Fig. 3, and the Examples II). […] Green fluorescent protein engineered for retention in the endoplasmic reticulum was modified to contain an N-glycosylation site that, when glycosylated, causes loss of fluorescence (Glyc-ER-GFP). (11) Glyc-ER-GFP was transfected into patient fibroblasts in culture, and fluorescence was measured by means of quantitative microscopy (see the Examples II).
Glycosylation efficiency was measured using Glyc-ER-GFP constructs as described.^11 In brief, cells were seeded in a 96 wells-plate at 40% confluence. 24h later, they were incubated in medium without or with addition of supplements (e.g. 0-1 mM galactose +/-100µM uridine) for 2 days with medium replacement every day. Cells were then transfected by the Glyc-ER-GFP and maintained in the same culture media for two more days. Cells were fixed using 4% paraformaldehyde/4% sucrose and stained by Hoechst 33342 (Thermo scientific). Plates were analyzed using a high-content microscope, IN Cell 1000 (GE Healthcare), and data were analyzed with the CytoSeer software (Vala Sciences) using a protein mask.

The subject of the next series is transferrin. In words: Dietary supplementation in patients: transferrin glycosylation. It is filed as in vivo, human. Particulars: for transferrin glycosylation by mass spectrometry: six patients, 0.5 to 1.0 g per kilogram per day, within 2 weeks. On the procedure: as §2, §1
For high-resolution mass spectrometry of transferrin (Fig. 3), a 5 µl serum sample was incubated with anti-transferrin beads as described.^8 The eluate was analyzed on a microfluidic 6540 LC-chip-QTOF instrument (Agilent Technologies) using a C8 protein chip. Data analysis was performed using Agilent Mass Hunter Qualitative Analysis Software B.04.00. The Agilent BioConfirm Software was used to deconvolute the charge distribution of raw data to reconstructed mass data. For confirmation of the structural annotations, samples were processed for analysis of tryptic transferrin peptides by MALDI-TOF as described^9 (results not shown).

The next series concerns total serum N-glycome. In words: Dietary supplementation in patients: total serum N-glycome by capillary electrophoresis. Particulars: patients with galactose supplementation. It is filed as in vivo, human. The text has this:
• Figure 1. Glycoprotein Biosynthesis and Congenital Disorders of Glycosylation. For the N-glycosylation of proteins, a glycan precursor is assembled from monosaccharide units on an anchoring isoprenoid alcohol, dolichol, in the membrane of the endoplasmic reticulum. Each glycan precursor is then transferred en bloc to a specific asparagine residue in the nascent peptide chain of a protein being synthesized by a ribosome and entering the endoplasmic reticulum. Because transferrin (brown line) is abundant in blood, it is used as an indicator of the efficiency of the glycosylation system. Transferrin has two glycosylation sites. The protein is transported to the Golgi apparatus, and the glycans are modified in multiple steps. Each fully modified glycan is terminated with two negatively charged sialic acid residues. Thus, the transferrin molecule carries a total of four sialic acid residues. If a genetic defect impairs synthesis of the precursor glycan in the endoplasmic reticulum, one or both glycosylation sites of transferrin may remain unoccupied (white arrow). Such defects are classified as congenital disorders of glycosylation type I (CDG-I). […] CDG-I defects are easily identified owing to the occurrence of transferrin isoforms with two or no sialic acid residues detected by means of IEF. […]

Series [3] is described as follows: Dietary supplementation in patients: hormones and clinical course. It is filed as in vivo, human. The note with it: for levels of luteinizing hormone, increased by a factor of: initially 2.5th percentile. On the procedure:
as §1

The next series deals with skin fibroblasts. The series can be described thus: Evaluation of glycogen by electron microscopy in fibroblasts. It is filed as cell-based, human. Particulars: 5.5 mM sugar in medium, 50 h. Here is the method: For electron microscopy, skin fibroblasts of patients and controls were cultured to a confluence of 50 to 70% in M199 medium (Life Technologies) supplemented with 10% fetal calf serum and 1% penicillin/streptomycin in a humidified atmosphere containing 5% CO2 at 37°C. Cells were switched to a medium consisting of DMEM supplemented with 4mM L-glutamine (Invitrogen), 10% dialyzed FCS (Gibco), 1mM uridine (Calbiochem), and either 5.5 mM D-glucose (Sigma), or 5.5 mM D-Galactose (Merck). After 50 h of incubation, cells were centrifuged for 10 min at 1000rpm and fixed by gentle addition of 2% glutaraldehyde buffered with 0.1 M sodium cacodylate pH7.4 after removing the medium. After at least 4h fixation, the pellets were very carefully taken off and post-fixed in 1% osmium tetroxide in Palade buffer pH 7.4 with 1% potassium hexacyanoferrate(III)-trihydrate, and after dehydration in ethanol and propylene oxide, embedded in Epon for electron microscopy. Semithin 1µm thick transverse sections were stained with 1% Toluidine Blue. Ultrathin sections were stained with uranyl acetate and lead citrate and examined on a JEOL 1200 EX\II. […] Cells with small darkly staining aggregates of glycogen were counted as positive. Fibroblasts were prepared for evaluation of glycogen by electron microscopy as described above. The presence of glycogen in control and patient fibroblasts cultured in the presence of either glucose or galactose was assessed by electron microscopy. Cells (of 115-160 total) with small darkly staining aggregates of glycogen were counted as positive. Aggregates are typically more common in glycogen storage diseases (picture for hepatocytes s. Fig. 7, panel C, D).

[4] abbreviates: Patients 2 and 6, after initiation of galactose treatment.

Consider 2 compounds from patent publication EP2905621B1, “MEANS AND METHODS FOR DIAGNOSING AND TREATING CDG CAUSED BY A DEFICIENCY OF PGM1” (Westfälische Wilhelms-Universität Münster, priority 2014, dated 2015).

With `O=C[C@H](O)[C@@H](O)[C@@H](O)[C@H](O)CO` [galactose], the “plasma concentration of galactose, maximum” value in series [1] turned out to be 700 µM. In addition, in series [1], the “time after which galactose decreased to baseline levels” value amounted to 2 h. In series [1], the “time of maximum galactose concentration” value was found to be 50 min. In series [2], the “glycosylation of Glyc-ER-GFP” value is listed as “substantially enhanced”. In the series on transferrin (Patient 1.1, daily 0.5 g per kg b.w. in 3 portions, doubled after one week, HPLC, within a few weeks, 50 before), this compound came in with a tetrasialo-transferrin of 70%. Further, in the series with transferrin, the “transferrin glycosylation by mass spectrometry” value is “improved substantially”. The “glycosylation of the total serum N-glycome” value in the series on total serum N-glycome was “substantial improvement”. The “levels of luteinizing hormone, increased by a factor of” value in series [3] (Patient 2, after initiation of galactose supplementation) turned out to be 5; in series [3] (Patient 6, after initiation of galactose supplementation) it was 10. Besides, in series [3] (Patients 2 and 6, after initiation of galactose supplementation), the hypogonadotropic hypogonadism entry is “resolved within a few weeks”. The cardiac function result in series [3] (setting [4]) was “remained stable”. Further, the episodes of rhabdomyolysis result in series [3] (setting [4]) is listed as “no further episodes”. Further, the “ultrasonography of the liver” value in series [3] (Patients 2 and 6, every 3 months during galactose supplementation) is “no increase in echogenicity and no signs of cholestasis”. Also, in series [3] (Patients 2 and 6, galactose supplementation), the “levels of follicle-stimulating hormone (FSH)” value is “normalized”. The “% of cells with glycogen aggregates” value was 2% in the series on skin fibroblasts (Control 1 fibroblasts), 4% in the series with skin fibroblasts (Control 2 fibroblasts), under 1% in the series on skin fibroblasts (PGM1-6 patient fibroblasts) and under 1% in the series on skin fibroblasts (PGM1-7 patient fibroblasts).
For `OC[C@H]1O[C@@H](O[C@H]2[C@H](O)[C@@H](O)C(O)O[C@@H]2CO)[C@H](O)[C@@H](O)[C@H]1O` (stereo partly shown) [lactose], the “transferrin glycosylation by mass spectrometry” value in the series with transferrin was “improved substantially”.
